Values quoted from earlier work in patent publication US20150072881A1 (priority 2010, published 2015).
“Also recorded” adds a separate entry of the source. Ends that are not written are not given here.

Legend:
[1] = test system: genes (and gene products, eg., mRNA or protein); settings: in vivo
[2] = test system: Pomc; settings: anterior pituitary cell line
[3] = test system: cAMP
[4] = test system: MAPK/ERK
[5] = test system: dopamine; settings: directly or indirectly
[6] = test system: pronociceptin (PNOC); settings: hippocampus of alcoholics
[7] = test system: opiate receptor-like 1 (OPRL-1); settings: amygdala of alcoholics
[8] = test system: Sgk1; settings: Western blotting; morphine-induced
[9] = test system: Tsc22d3; settings: Western blotting; drug-regulated gene
[10] = test system: PC12 clonal cell line from chromaffin adrenal cells
[11] = test system: Leptin receptor expression in VTA

For `N[C@@H]1C[C@H]1c1ccccc1` (racemic) [Tranylcypromine], the mRNA increase [1] is listed as “dopamine D3 receptor mRNA in shell of the nucleus accumbens”.
For `Nc1ncnc2c1ncn2[C@@H]1O[C@@H]2COP(O)(=S)O[C@H]2[C@H]1O` (single isomer, unassigned) [Rp-cAMPS, adenosine-3′,5′ cyclinc monophosphorothioate, Rp-isomer], the “blockade of substance-induced mRNA increase” value [1] is given as “CART - effect attenuated by inhibition of PKA with H89 [N-(2-”.
In the case of `CN(C)CCC=C1c2ccccc2CCc2ccccc21` [Amitriptyline], the mRNA increase [1] is listed as “dopamine D3 receptor mRNA in shell of the nucleus accumbens;; also recorded: D1 and D2 receptors [1]”.
For `CC(N)Cc1ccccc1` (stereo not drawn) [Amphetamine], the mRNA decrease [1] is given as “Penk in CeA and anterior medial CPu [1]; also recorded: GluR1 in nucleus acumbens shell, GluR2 in core and shell [3]” and the mRNA increase [1] is given as “Penk in frontal cortex; Pdyn in AMG [1]; also recorded: mGluR8 in rat dorsal and ventral striatum, as well as cortex,; also recorded: After 3 days of withdrawl, GluR1 in PFC [3]; also recorded: Mu receptors in VTA; Pdyn in CPu and NAc [1]”.
For `CCCCCCC(C)(C)c1ccc([C@@H]2C[C@H](O)CC[C@H]2CCCO)c(O)c1` [CP-55,940], the mRNA increase [1] is given as “Increased Penk in NAc and CPu, Tu and Pir, HPT (both PVN”.
For `CNCCCN1c2ccccc2CCc2ccccc21` [Desipramine], the mRNA increase [1] is given as “dopamine D3 receptor mRNA in shell of the nucleus accumbens”.
In the case of `COc1ccc2c(c1)[C@]13CCCC[C@@H]1[C@H](C2)N(C)CC3` [Dextromethorphan], the mRNA increase [1] is listed as 40 mg/kg ip in rats caused increase of tyrosine hydroxylase (TH).
In the case of `Cl.O=S(=O)(NCCNCC=Cc1ccc(Br)cc1)c1cccc2cnccc12` [H89, N-(2-[p-bromocinnamylamino]ethyl)-5-isoquinoline-sulfonamide hudrochloride], the “blockade of substance-induced mRNA increase” value [1] is given as “CART - effect attenuated by inhibition of PKA with H89 [N-(2-”.
For `CC(=O)Oc1ccc2c3c1O[C@H]1[C@@H](OC(C)=O)C=C[C@H]4[C@@H](C2)N(C)CC[C@@]341` [Heroin], the mRNA decrease [1] is listed as “DAT in paranigral nucleus and mesolimbic division of the ventral tegmental; also recorded: area. Reduction of Nurr1expression with age in heroin users [2]; also recorded: tyrosine hydroxylase in mesolimbic dopamine neurons [3]” and the mRNA increase [1] is listed as “heroin abuse. Express higher Penk mRNA [1]; also recorded: TH and alpha synuclein in VTA PN in heroin users with no; also recorded: Penk; NAc PENK in Met/Met (control) heroin abusers [3]”.
In the case of `CN(C)CCCN1c2ccccc2CCc2ccccc21` [Imipramine], the mRNA increase [1] is given as “dopamine D3 receptor mRNA in shell of the nucleus accumbens;”.
For `CC(C)C[C@H](N)C(=O)O` [Leucine], the mRNA decrease [1] is given as “FTO in hypothalamus of rodents [1]”.
For `CN[C@@H](C)Cc1ccccc1` [Methamphetamine], the mRNA increase [1] is listed as “Pdyn in HPT [1]; also recorded: Increased TNF-alpha in normal animals [2]”.
For `CCCCCCCCCC(=O)O[C@H]1CC[C@H]2[C@@H]3CCC4=CC(=O)CC[C@@H]4[C@H]3CC[C@]12C` [Nandrolone decanoate], the mRNA decrease [1] is listed as “Dopamine D(1)-receptor subtype in the caudate putamen and nucleus” and the mRNA increase [1] is listed as “Dopamine D(2) receptor at the lowest doeses in the caudate”.
For `CC1NCCc2cc(O)c(O)cc21` (stereo not drawn) [R (+)- salsolinol], the mRNA decrease [2] is given as “POMC anterior pituitary cell line [1]” and the “cAMP level / production” value [3] is given as “whereas R(+)- SAL does not affect cAMP production [1]”.
In the case of `CCCCC/C=C\C/C=C\C/C=C\C/C=C\CCCC(=O)N[C@H](C)CO` [R-methanandamide], the mRNA increase [1] is given as “Increased Penk in NAc and CPu, Tu and Pir, HPT (both PVN”.
For `C[C@@H]1NCCc2cc(O)c(O)cc21` [S(−)-salsolinol], the mRNA decrease [2] is given as “POMC anterior pituitary cell line [1]” and the “cAMP level / production” value [3] is given as “Decrease in cAMP level occurs after treatment with S(−)-SAL,”.
In the case of `Cc1c(C(=O)NN2CCCCC2)nn(-c2ccc(Cl)cc2Cl)c1-c1ccc(Cl)cc1` [SR 141716A], the “inhibition of THC-induced MAPK/ERK activation” value ([4]; in vivo) is listed as “accumbens. This activation is totally inhibited by selective”.
For `CCCCCc1cc(O)c2c(c1)OC(C)(C)[C@@H]1CCC(C)=C[C@@H]21` [THC, Delta-tetrahydrocannabinol], the “activation (phosphorylation) of MAPK/ERK” value ([4]; dorsal striatum and nucleus accumbens) is given as “THC induces a progressive and transient activation”, the “effect on dopamine release or re-uptake” value [5] is given as “enhance release or block re-uptake of dopamine” and the mRNA increase [1] is given as “Increased Penk in NAc and CPu, Tu and Pir, HPT (both PVN; also recorded: BDNF in reward center (nucleus accumbens, medial prefrontal”.
For `CCCN(CCC)C1Cc2cc(OC)c(OC)cc2C1` [U99194A], the mRNA increase [1] is given as “c-fos (similar pattern to that produced by d-amphetamine) in”.
For `CCO` [ethanol], the “pronociceptin (PNOC) mRNA decrease” value [6] is given as “pronociceptin (PNOC), 1.7-fold in hippocampus of alcoholics”, the “effect on dopamine release or re-uptake” value [5] is given as “enhance release or block re-uptake of dopamine” and the “opiate receptor-like 1 (OPRL-1) mRNA decrease” value [7] is given as “opiate receptor-like 1 (OPRL-1) 1.4-fold in amygdala of alcoholics [2]”.
In the case of `CN1CC[C@]23c4c5ccc(O)c4O[C@H]2[C@@H](O)C=C[C@H]3[C@H]1C5` [morphine], the “level of the Sgk1 protein (significant decrease)” value [8] is given as 0.75 fold and the “Tsc22d3 protein level (increase)” value [9] is given as “approximately 1.5 fold”.
For `CN1CCCC1c1cccnc1` (stereo not drawn) [nicotine], the “effect on dopamine release or re-uptake” value [5] is given as “enhance release or block re-uptake of dopamine”, the mRNA decrease [10] is given as “Dopamine D2 receptor and tyrosine hydroxylase in PC12 clonal cell line” and the mRNA decrease [1] is given as “POMC in MBH which was observed after 21 days of spontaneous; also recorded: withdrawl from nicotine; Pdyn in ventral shell of NAc [1]”. The mRNA increase [1] was “Mu receptors in VTA; POMC in Arc; POMC in AL of the; also recorded: pituitary; Pdyn in CPu after nicotine withdrawl; Pdvn in HPT [1]; also recorded: c-fos in bed nucleus of stria terminalis, nucleus accumbens shell; also recorded: CREB phosphorylation when exposed to situation where; also recorded: MOR expression [4]; also recorded: c fos in limbic regions of adolescents [5]”.
For `CC(N)Cc1ccc(Cl)cc1` (stereo not drawn) [para-chloroamphetamine], the mRNA decrease [1] is listed as “[1] repeated stress in pre-treated rats led to downregulation of BDNF mRNA” and the mRNA increase [1] is listed as “[1] repeated stress in pre-treated animals led to less”.
In the case of `CCN1CCC[C@H]1CNC(=O)c1c(O)c(Cl)cc(Cl)c1OC` [raclopride], the “blockade of substance-induced mRNA increase” value [1] is listed as “Cart in nucleus accumbens (effect blocked by both SCH-”.
For “Leptin: Leptin administered directly to VTA”, the firing rate ([11]; VTA) is listed as “reduction”, the “intracellular JAK-STAT pathway” value ([11]; VTA) is listed as “activates” and the food intake ([11]; direct administration to VTA) is listed as “Direct administration of leptin to VTA caused decreased food intake while”.
In the case of “Substance P (RPKPQQFFGLM; not fully specified (C-terminus); ends and bridges not checked; UniProt P20366 58-68, looked up)”, the mRNA decrease [1] is listed as “D2 receptor in nucleus accumbens and frontal cortex [1]”.
